According to US20240034736A1, “HSD17B13 INHIBITORS AND USES THEREOF” (FL2022-001, Inc., priority 2020, published 2024):
pIC50: −log10 of the molar value.

Molecular target: Recombinant human HSD17B13 enzyme (Homo sapiens (Human), UniProt Q7Z5P4)
Experiment: HSD17b13 NAD(P)H-Glo Biochemical Assay
Conditions: 50 uM estradiol, 1 mM NAD+; read-out: HSD17β13 IC50
Procedure, shortened: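 Luminescent NAD(P)H-Glo detection (1 h, RT) quantified cofactor reduction after a 3 h, 37° C reaction of human HSD17B13 with estradiol (50 uM final) and NAD+ (1 mM final). Compounds were first pre-incubated 20 min at RT with enzyme in Tris pH 7.4 buffer containing Tween-20 and BSA.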

Chain of Recombinant human HSD17B13 enzyme (Q7Z5P4 20-300): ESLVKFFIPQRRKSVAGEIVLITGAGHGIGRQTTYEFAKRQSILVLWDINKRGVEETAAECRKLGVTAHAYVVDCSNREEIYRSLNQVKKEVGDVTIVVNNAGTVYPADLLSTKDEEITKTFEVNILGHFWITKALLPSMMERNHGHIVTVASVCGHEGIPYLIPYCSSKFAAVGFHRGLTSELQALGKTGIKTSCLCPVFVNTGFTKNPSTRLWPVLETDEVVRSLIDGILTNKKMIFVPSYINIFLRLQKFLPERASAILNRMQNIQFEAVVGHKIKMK

pIC50	Structure (SMILES)
> 7.00	Cc1nn(-c2cc(C(F)(F)F)c(F)c(O)c2F)c2cc(Cl)c(N(C)C3CCOCC3)nc12 [Compound 19.115, 3-(6-Chloro-3-methyl-5-(methyl(tetrahydro-2H-pyran-4-yl)amino)-1H-pyrazolo[4,3-b]pyridin-1-yl)-2,6-difluoro-5-(trifluoromethyl)phenol]
> 7.00	Cc1nn(-c2cc(C(F)(F)F)c(Cl)c(O)c2F)c2cnc(N3CCOCC34CC4)cc12 [Compound 19.116, 2-Chloro-6-fluoro-5-(3-methyl-5-(7-oxa-4-azaspiro[2.5]octan-4-yl)-1H-pyrazolo[3,4-c]pyridin-1-yl)-3-(trifluoromethyl)phenol]
> 7.00	Cc1nn(-c2cc(C(F)(F)F)c(F)c(O)c2F)c2cc(Cl)c(N3CCOCC34CC4)nc12 [Compound 19.114, 3-(6-Chloro-3-methyl-5-(7-oxa-4-azaspiro[2.5]octan-4-yl)-1H-pyrazolo[4,3-b]pyridin-1-yl)-2,6-difluoro-5-(trifluoromethyl)phenol]
4.52 to 6.00	Oc1ccc(-c2ccc3c(cnn3-c3ccc(C(F)(F)F)c(O)c3)c2)cc1Cl [Compound 3.02, 2-Chloro-4-(1-(3-hydroxy-4-(trifluoromethyl)phenyl)-1H-indazol-5-yl)phenol]
4.52 to 6.00	Cc1cc(-n2ncc3cc(N4CCN(S(C)(=O)=O)CC4)ncc32)c(F)c(O)c1F [Compound 19.28, 2,6-Difluoro-3-methyl-5-(5-(4-(methylsulfonyl)piperazin-1-yl)-1H-pyrazolo[3,4-c]pyridine-1-yl)phenol]
6.00 to 7.00	CS(=O)(=O)N1CCN(c2cc3cn(-c4cc(O)c(F)c(Cl)c4)nc3cn2)CC1 [Compound 19.22, 3-Chloro-2-fluoro-5-(5-(4-(methylsulfonyl)piperazin-1-yl)-2H-pyrazolo[3,4-c]pyridine-2-yl)phenol]
> 7.00	Cc1nn(-c2cc(C(F)(F)F)c(F)c(O)c2F)c2cnc(N3CCOC4(CCC4)C3)nc12 [Compound 19.82, 2,6-Difluoro-3-(3-methyl-5-(5-oxa-8-azaspiro[3.5]nonan-8-yl)-1H-pyrazolo[4,3-d]pyrimidin-1-yl)-5-(trifluoromethyl)phenol]
6.00 to 7.00	CC(C)c1nn(-c2cc(C(F)(F)F)c(F)c(O)c2F)c2ccc(N(C)C3CCOCC3)cc12 [Compound 19.74, 2,6-Difluoro-3-(3-isopropyl-5-(methyl(tetrahydro-2H-pyran-4-yl)amino)-1H-indazol-1-yl)-5-(trifluoromethyl)phenol]
6.00 to 7.00	Cc1ccc(-c2ccc3c(cnn3-c3cc(O)c(F)c(F)c3)c2)cn1 [Compound 7.02, 2,3-Difluoro-5-(5-(6-methylpyridin-3-yl)-1H-indazol-1-yl)phenol]
6.00 to 7.00	O=S(=O)(CC1CC1)NC1CN(c2cc3cnn(-c4cc(O)c(F)c(F)c4)c3cc2Cl)C1 [Compound 21.37, N-(1-(6-Chloro-1-(3,4-difluoro-5-hydroxyphenyl)-1H-indazol-5-yl)azetidin-3-yl)-1-cyclo-propylmethanesulfonamide]
> 7.00	CN(c1ccc2c(cnn2-c2cc(C(F)(F)F)c(F)c(O)c2F)c1)C1CCOCC1 [Compound 19.70, 2,6-Difluoro-3-(5-(methyl(tetrahydro-2H-pyran-4-yl)amino)-1H-indazol-1-yl)-5-(trifluoromethyl)phenol]
6.00 to 7.00	Oc1cnc(-c2ccc3c(cnn3-c3cc(O)c(F)c(F)c3)c2)c(Cl)c1 [Compound 16.01, 5-Chloro-6-(1-(3,4-difluoro-5-hydroxyphenyl)-1H-indazol-5-yl)pyridine-3-ol]
4.52 to 6.00	CS(=O)(=O)N1CCN(c2cc3cn(-c4ccc(C(F)(F)F)c(O)c4F)nc3cn2)CC1 [Compound 19.26, 2-Fluoro-3-(5-(4-(methylsulfonyl)piperazin-1-yl)-2H-pyrazolo[3,4-c]pyridine-2-yl)-6-(trifluoromethyl)phenol]
6.00 to 7.00	CS(=O)(=O)N1CCN(c2cc3cnn(-c4ccc(Cl)c(O)c4F)c3cc2F)CC1 [Compound 19.03, 6-Chloro-2-fluoro-3-(6-fluoro-5-(4-(methylsulfonyl)piperazin-1-yl)-1H-indazol-1-yl)phenol]
4.52 to 6.00	O=S(=O)(c1ccc2c(cnn2-c2cc(O)c(F)c(F)c2)c1)N1CCCCC1 [Compound 30, 2,3-Difluoro-5-(5-(piperidin-1-ylsulfonyl)-1H-indazol-1-yl)phenol]
4.52 to 6.00	CS(=O)(=O)N1CCC(Oc2ccc3c(cnn3-c3cc(O)c(F)c(F)c3)c2)CC1 [Compound 25.01, 2,3-Difluoro-5-(5-((1-(methyl-sulfonyl)piperidin-4-yl)oxy)-1H-indazol-1-yl)phenol]
6.00 to 7.00	CS(=O)(=O)N1CCN(c2cc3cnn(-c4cc(O)c(F)c(F)c4)c3cc2Cl)CC1 [Compound 21.13, 5-(6-Chloro-5-(4-(methyl-sulfonyl)piperazin-1-yl)-1H-indazol-1-yl)-2,3-difluoro-phenol]
6.00 to 7.00	CS(=O)(=O)N1CCN(c2ncc3c(cnn3-c3cc(O)c(F)c(C(F)(F)F)c3)n2)CC1 [Compound 21.52, 2-Fluoro-5-(5-(4-(methyl-sulfonyl)piperazin-1-yl)-1H-pyrazolo[4,3-d]pyrimidin-1-yl)-3-(trifluoromethyl)phenol]

pIC50	Structure (SMILES)
6.00 to 7.00	CC1(C)CCN(c2cc3cnn(-c4cc(O)c(F)c(C(F)(F)F)c4)c3cn2)CC1 [Compound 21.43, 5-(5-(4,4-Dimethylpiperidin-1-yl)-1H-pyrazolo[3,4-c]-pyridine-1-yl)-2-fluoro-3-(trifluoromethyl)phenol]
4.52 to 6.00	CS(=O)(=O)Nc1cccc(-c2ccc3c(cnn3-c3ccc(F)c(O)c3)c2)c1 [Compound 4.04, N-(3-(1-(4-Fluoro-3-hydroxyphenyl)-1H-indazol-5-yl)phenyl)methanesulfonamide]
4.52 to 6.00	CC(=O)N1CCC(Oc2ccc3c(cnn3-c3cc(O)c(F)c(F)c3)c2)CC1 [Compound 24, 1-(4-((1-(3,4-Difluoro-5-hydroxyphenyl)-1H-indazol-5-yl)oxy)piperidin-1-yl)ethan-1-one]
4.52 to 6.00	CS(=O)(=O)N1CCN(c2cc3cnn(-c4ccc(F)c(O)c4)c3cn2)CC1 [Compound 19.09, 2-Fluoro-5-(5-(4-(methylsulfonyl)piperazin-1-yl)-1H-pyrazolo[3,4-c]pyridine-1-yl)phenol]
> 7.00	Cc1nn(-c2cc(C(F)(F)F)c(F)c(O)c2F)c2ccc(N(C)C3CCOCC3)cc12 [Compound 19.69, 2,6-Difluoro-3-(3-methyl-5-(methyl(tetrahydro-2H-pyran-4-yl)amino)-1H-indazol-1-yl)-5-(trifluoromethyl)phenol]
6.00 to 7.00	Oc1ccc(-c2ccc3c(cnn3-c3ccc(F)c(O)c3F)c2)cc1Cl [Compound 8, 3-(5-(3-Chloro-4-hydroxyphenyl)-1H-indazol-1-yl)-2,6-difluorophenol]
6.00 to 7.00	O=S(=O)(C1CC1)N1CCN(c2cc3cnn(-c4cc(O)c(F)c(F)c4)c3cc2Cl)CC1 [Compound 21.32, 5-(6-Chloro-5-(4-(cycloprop-ylsulfonyl)piperazin-1-yl)-1H-indazol-1-yl)-2,3-difluoro-phenol]
6.00 to 7.00	CN(C)S(=O)(=O)C1CN(c2ccc3c(cnn3-c3cc(O)c(F)c(F)c3)c2)C1 [Compound 21.36, 1-(1-(3,4-Difluoro-5-hydroxy-phenyl)-1H-indazol-5-yl)-N,N-dimethylazetidine-3-sulfon-amide]
4.52 to 6.00	CC1(c2ccc3c(cnn3-c3cc(O)c(F)c(F)c3)c2)CCN(S(C)(=O)=O)CC1 [Compound 28.03, 2,3-Difluoro-5-(5-(4-methyl-1-(methylsulfonyl)piperidin-4-yl)-1H-indazol-1-yl)phenol]
6.00 to 7.00	Oc1cc(-n2ncc3cc(-c4ccc(O)c(Cl)c4)ccc32)ccc1F [Compound 4, 2-Chloro-4-(1-(4-fluoro-3-hydroxyphenyl)-1H-indazol-5-yl)phenol]
6.00 to 7.00	Oc1cc(-n2ncc3cc(-c4ccc(O)c(Cl)c4)ccc32)c(F)cc1F [Compound 8.02, 5-(5-(3-Chloro-4-hydroxyphenyl)-1H-indazol-1-yl)-2,4-difluorophenol]
> 7.00	CS(=O)(=O)N1CCC(c2ccc3c(cnn3-c3cc(O)c(F)c(F)c3)c2)CC1 [Compound 27, 2,3-Difluoro-5-(5-(1-(methylsulfonyl)piperidin-4-yl)-1H-indazol-1-yl)phenol]
> 7.00	Cc1nn(-c2cc(C(F)(F)F)c(F)c(O)c2F)c2cnc(N3CCN(S(=O)(=O)c4cnn(C)c4)CC3)cc12 [Compound 19.57, 2,6-Difluoro-3-(3-methyl-5-(4-((1-methyl-1H-pyrazol-4-yl)sulfonyl)piperazin-1-yl)-1H-pyrazolo[3,4-c]pyridin-1-yl)-5-(trifluoromethyl)phenol]
6.00 to 7.00	Cc1ccccc1-c1ccc2c(cnn2-c2ccc(F)c(O)c2)c1 [Compound 4.12, 2-Fluoro-5-(5-(o-tolyl)-1H-indazol-1-yl)phenol]
6.00 to 7.00	CC1(C)CN(c2ccc3c(cnn3-c3cc(O)c(F)c(F)c3)c2)CCN1S(C)(=O)=O [Compound 21.29, 5-(5-(3,3-Dimethyl-4-(methyl-sulfonyl)piperazin-1-yl)-1H-indazol-1-yl)-2,3-difluoro-phenol]
4.52 to 6.00	CS(=O)(=O)N1CCN(c2cc3cn(-c4cc(O)cc(OC(F)(F)F)c4)nc3cn2)CC1 [Compound 19.13, 3-(5-(4-(Methylsulfonyl)piperazin-1-yl)-2H-pyrazolo[3,4-c]pyridin-2-yl)-5-(trifluoromethoxy)phenol]
6.00 to 7.00	CNc1c(-n2nc(Cl)c3cc(N(C)C4CCOCC4)ccc32)cc(C(F)(F)F)c(F)c1O [Compound 19.91, 3-(3-Chloro-5-(methyl(tetrahydro-2H-pyran-4-yl)amino)-1H-indazol-1-yl)-6-fluoro-2-(methylamino)-5-(trifluoromethyl)phenol]

Same assay, conditions: read-out: HSD17β13 inhibition at 100 uM

inhibition at 100 µM	Structure (SMILES)
40%	CNC(=O)C1CCN(c2ccc3c(cnn3-c3ccc(F)c(O)c3)c2)CC1 [Compound 20.03, 1-(1-(4-Fluoro-3-hydroxy-phenyl)-1H-indazol-5-yl)-N-methylpiperidine-4-carboxamide]
